Patent US20210275480A1, “COMPOSITIONS AND METHODS FOR THE REDUCTION OR TREATMENT OF FIBROSIS” (AXCELLA HEALTH INC., priority 2018, published 2021)

What was measured:
[1] = system: LX-2 hepatic stellate cells; assay: TGFβ1-induced fibrogenic gene expression (Col1a1, Acta2, Timp2) in LX-2 hepatic stellate cells, qPCR; assay type: cell-based, human
Description: Hepatic stellate cells in a healthy liver are in the space of Disse, between the hepatocytes and liver sinusoidal endothelial cells. In response to liver injury hepatic stellate cells become activated, proliferative and contractile, increase production of aSMA, secretion of type I and III collagens and specific MMP and TIMP proteins. LX-2 cells were selected as a model of activated hepatic stellate cells and used to test whether specific amino acid compositions would reduce fibrogenic gene expression induced with TGFβ1.
LX-2 hepatic stellate cells (Millipore) were seeded on day 0 at 1.67E4 cells per well in collagen I coated 96-well microplates (ThermoFisher) in Dulbecco's Modified Eagle Medium (DMEM, Corning) supplemented with 2% heat inactivated fetal bovine serum (HI-FBS, HyClone) and 0.2% Primocin (InVivoGen) and incubated overnight at 37° C., 5% CO2. […] Combinations containing N-acetylcysteine were dosed with 10 mM. Cells were pretreated for 6 hours at 37° C., 5% CO2. After pretreatment, TGFβ1 (R&D Systems) or vehicle was spiked into each well for a final concentration of 5 ng/mL and cells were incubated under this stimulus for a further 12 hours at 37° C., 5% CO2.
After 12 hour incubation, RNA extraction and quantitative PCR was conducted on lysates to determine collagen-1a1 expression normalized to β-actin housekeeping expression using the ΔΔCt method using TaqMan primer probes (Integrated DNA Technologies: Col1A1, Hs.PT.58.15517795; Actb, Hs.PT.39a.22214847; Acta2, Hs.PT.56a.24853961; Timp2, Hs.PT.58.14780594).

[2] = system: Hsp47 gene expression, primary human hepatic stellate cells; assay: Hsp47 gene expression in TGFβ1-stimulated primary human hepatic stellate cells; assay type: cell-based; settings: primary human hepatic stellate cells, three healthy donors, TGFβ1 3 ng/mL 24 h; summary in words
Procedure: Primary human hepatic stellate cells were obtained from Samsara Sciences based on the following criteria for selecting donors: adult age (between 18 and 50 years), normal BMI (>18.5 and <25), and absence of confounding liver disease. Cells grown in Complete HSC Medium to ˜80% confluence in T75 or T150 flasks below passage 10 were seeded into sterile, collagen I coated, 96-well optical plastic microplates (ThermoScientific, 152036) at 6000 cells per well (1250 cells per cm2) and incubated overnight at 37° C., 5% CO2 in a humidified incubator in DMEM with 2% Fetal Bovine Serum and 1% Antibiotic-Antimycotic.
After the overnight incubation, plates were removed from the incubator and the medium was gently pipetted off and washed twice with 150 μL per well DPBS. The DPBS was removed and the pretreatment medium (±single amino acid dropout, 1×HMDB DMEM+1% Antibiotic-Antimycotic, 10 mM HEPES, ±supplemental amino acid dose; see experiment for medium composition) was applied to the cells at 150 μL per well. Plates were returned to the incubator for 10.5 hours.
After 10.5 hour pretreatment, the medium was removed from the cells, and the same pretreatment medium, now supplemented with 3 ng/mL TGFβ1, was applied. Each plate contained 3 ng/mL TGFβ1 in 1× human plasma amino acid (HMDB or PAA) concentration medium, 0 ng/mL in 1×HMDB, and 3 ng/mL TGFβ1+20 μM Silybin in 1×HMDB to serve as controls. Plates were then incubated for 24 hours at 37° C., 5% CO2.
After 24 hour stimulus, supernatant was removed and frozen at −80° C. in two separate aliquots. The cells were then washed with 125 μL per well Buffer FCW (FastLane Cell Multiplex NR Kit, Qiagen, 216713). The wash buffer was immediately removed and 50 μL of Cell Processing Mix (containing genomic DNA Wipeout buffer) was applied to lyse cells, incubating for 10 minutes at room temperature. RNA lysate was then transferred to 96-well qPCR plates, sealed, and gDNA was digested on thermal cycler at 75° C. for 5 minutes. RNA lysate was frozen at −80° C.
Each 20 μL one-step RT-qPCR reaction contained 4 μL of RNA lysate. Gene expression of Hsp47, and Gapdh were multiplexed using the HEX, and FAM fluorescent channels, respectively, with commercially available primer-probe mixes (the Human Hsp47 Primer-Probe Set, HEX; and the Human Gapdh Primer-Probe Set, FAM from IDT). Gene expression was evaluated using the ΔΔCq method within each single amino acid dropout and supplementation by normalizing to its own 1×HMDB concentration.

[3] = system: Col1a1 gene expression, primary human hepatic stellate cells; assay: Col1a1 gene expression in TGFβ1-stimulated primary human hepatic stellate cells; assay type: cell-based; settings: primary human hepatic stellate cells, three healthy donors, TGFβ1 3 ng/mL 24 h; summary in words
Procedure: (§1) Primary human hepatic stellate cells were obtained from Samsara Sciences. Cells were grown in Complete HSC Medium to ˜80% confluence in T75 or T150 flasks below passage 10 were seeded into sterile, collagen I coated, 96-well optical plastic microplates (ThermoScientific, 152036) and incubated overnight at 37° C., 5% CO2 in a humidified incubator in DMEM with 2% Fetal Bovine Serum and 1% Antibiotic-Antimycotic. After the overnight incubation, plates are washed and pretreated with medium±single amino acid dropout, 1×HMDB DMEM±supplemental amino acid dose for 10.5 hours. After 10.5 hour pretreatment, the same pretreatment medium supplemented with 3 ng/mL TGFβ1, was applied and incubated for 24 hours at 37° C., 5% CO2. After 24 hour stimulus, supernatant was removed, RNA was extracted and gene expression was evaluated using the ΔΔCq method within each single amino acid dropout and supplementation by normalizing to its own 1×HMDB concentration.

[4] = system: procollagen Iα1 secretion, primary human hepatic stellate cells; assay: Procollagen Iα1 secretion by TGFβ1-stimulated primary human hepatic stellate cells, ELISA; assay type: cell-based; settings: primary human hepatic stellate cells, three healthy donors, TGFβ1 3 ng/mL 24 h; summary in words
Procedure: as §1
Human Procollagen 1α1 was measured from the supernatant by ELISA (Human ProCollagen I alpha 1 DuoSet ELISA, R&D Systems) at 1/100 dilution in 1× Reagent Diluent (Reagent Ancillary Kit 2, R&D Systems).
Tables 32, 33, 33-1, 33-2, 33-3, and 33-4 show the fold change in procollagen Iα1 in primary human hepatic stellate cells from three different healthy donors normalized to their respective baseline amino acid conditions. Statistical significance calculated by one-way

[5] = LX-2 cells with TGFβ1, individual amino acid at 1X HMDB derived concentration
[6] = LX-2 cells with TGFβ1, individual amino acid at 50X HMDB derived concentration
[7] = LX-2 cells, TGFβ1 5 ng/mL 12 h, combinations at 40× HMDB, N-acetylcysteine 10 mM, normalized to β-actin

SMILES | Col1a1 gene expression, mean [1, 5] | Col1a1 gene expression, mean [1, 6] | Hsp47 gene expression [2] | Col1a1 gene expression, mean ([1]; LX-2 cells with TGFβ1, individual amino acid at 50X HMDB derived concentration, listed as cysteine) | Col1a1 gene expression [3] | procollagen Iα1 secretion [4] | Acta2 gene expression, mean [1, 7] | Timp2 gene expression, mean [1, 7] | Col1a1 gene expression, mean ([1]; LX-2 cells, TGFβ1 5 ng/mL 12 h, combinations at 40× HMDB, N-acetylcysteine 10 mM, normalized to β-actin (ΔΔCt)) | Col1a1 gene expression, mean ([1]; LX-2 cells, TGFβ1 5 ng/mL 12 h, combinations at 40× HMDB, N-acetylcysteine 10 mM, normalized to β-actin (ΔΔCt), listed as N-acetylcysteine) | Timp2 gene expression, mean ([1]; LX-2 cells, TGFβ1 5 ng/mL 12 h, combinations at 40× HMDB, N-acetylcysteine 10 mM, normalized to β-actin, listed as N-acetylcysteine)
CC(C)C[C@H](N)C(=O)O [LEU, leucine] | 1.901 | 2.372 | did not significantly change | – | – | – | – | – | – | – | –
NC(=O)CC[C@H](N)C(=O)O [GLN, glutamine] | 2.340 | 2.194 | significantly increased Hsp47 gene expression in one of three donors | – | – | – | – | – | – | – | –
N[C@@H](CS)C(=O)O [CYS, cysteine] | 2.491 | 1.695 | – | significant decrease | – | – | – | – | – | – | –
N=C(N)NCCC[C@H](N)C(=O)O [ARG, arginine] | 1.620 | 1.970 | significantly increased Hsp47 gene expression in two of three donors | – | did not significantly change | significantly increased procollagen Iα1 secretion in two of three donors | – | – | – | – | –
CC(=O)N[C@@H](CS)C(=O)O [NAC, N-acetylcysteine] | – | – | – | – | significantly reduced Col1a1 gene expression in all three donors | significantly decrease procollagen Iα1 secretion in two of the three donors | 0.647 | 1.076 | 1.659 | reduced | reduced
